Our source for the Kd values is article PMC12265714 (bioRxiv, 2025).

In this test the target is T1, ComFB (FB; Bsu FB) (Bacillus subtilis, UniProt P39146).
T1 sequence (P39146 1-98): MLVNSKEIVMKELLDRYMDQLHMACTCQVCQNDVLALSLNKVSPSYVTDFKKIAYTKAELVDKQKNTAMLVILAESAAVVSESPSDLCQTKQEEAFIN
Description: isothermal titration calorimetry, one-site model. Format: binding.

The term Kd denotes a measure of binding affinity in units of concentration. A high value points to weaker binding.

For the molecule `Nc1ncnc2c1ncn2[C@@H]1O[C@@H]2COP(=O)(O)O[C@H]3[C@@H](O)[C@H](n4cnc5c(N)ncnc54)O[C@@H]3COP(=O)(O)O[C@H]2[C@H]1O` [c-di-AMP], binding was characterised by a dissociation constant (Kd) of 69.1 ± 139 µM.

The molecule `Nc1nc2c(ncn2[C@@H]2O[C@@H]3CO[P@](=O)(O)O[C@H]4[C@@H](O)[C@H](n5cnc6c(=O)[nH]c(N)nc65)O[C@@H]4CO[P@](=O)(O)O[C@H]3[C@H]2O)c(=O)[nH]1` [c-di-GMP] yielded a Kd of 0.14 ± 0.05 µM.
